Test results published in patent US9981928B2, “Aryl sulfide derivatives and aryl sulfoxide derivatives as acaricides and insecticides” (BAYER CROPSCIENCE AKTIENGESELLSCHAFT, priority 2013, dated 2018).
“And” between values parts separate entries of the source, which are not always exact repeats. Identical values can stand only once. Like-named read-outs stand apart in the source and are kept apart here.

Experiments:
[1] = log P determination by HPLC on reversed-phase columns (C 18), analogously to OECD Guideline 117; assay type: physicochemical; settings: for logP (HCOOH): LC-MS in the acidic range, pH 2.7, 0.1% aqueous formic acid / acetonitrile; for logP (HCOOH) / logP (neutral): HPLC reversed-phase C 18; for logP (neutral): LC-MS in the neutral range, pH 7.8, 0.001 molar aqueous ammonium hydrogencarbonate / acetonitrile; for chromatographic logP: reversed-phase C18 HPLC column
Method in brief: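 Reversed-phase C18 HPLC per OECD 117 with LC-MS detection and a linear 10→95% acetonitrile gradient. Acidic log P run at pH 2.7 with 0.1% formic acid in both eluents. Neutral log P run at pH 7.8 with 0.001 M aqueous ammonium hydrogencarbonate.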

[2] = tested on: greenhouse red spider mite (Tetranychus urticae); test: Tetranychus urticae spray test, OP-resistant (TETRUR), bean leaf disks; assay type: in vivo; settings: bean leaf disks, after 6 days
Method: Tetranychus urticae—Spray Test, OP-Resistant (TETRUR)
Solvent: 78.0 parts by weight of acetone
• 1.5 parts by weight of dimethylformamide Emulsifier: alkylaryl polyglycol ether
To produce a suitable preparation of active compound, 1 part by weight of active compound is dissolved using the stated parts by weight of solvent and made up with water containing an emulsifier concentration of 1000 ppm until the desired concentration is attained. To produce further test concentrations, the preparation is diluted with emulsifier-containing water.
disks of bean leaves (Phaseolus vulgaris) infested with all stages of the greenhouse red spider mite (Tetranychus urticae) are sprayed with an active compound preparation of the desired concentration.
After 6 days, the efficacy in % is determined. 100% means that all the spider mites have been killed; 0% means that none of the spider mites have been killed.

| Structure (SMILES) | logP (HCOOH) [1] | logP (neutral) [1] | efficacy in % ([2]; application rate 100 g/ha) | efficacy in % ([2]; application rate 500 g/ha) | chromatographic logP ([1]; acidic range, pH 2.7, 0.1% aqueous formic acid and acetonitrile, read-out: log P[a] / log P(HCOOH)) | chromatographic logP ([1]; neutral range, pH 7.8, 0.001 molar aqueous ammonium hydrogencarbonate and acetonitrile, read-out: log P[b] / log P(neutral)) | pest or weed control at 500 g/ha ([2]; Tetranychus urticae, foliar, 144 h, application rate 500 g/ha, read-out: efficacy in %) |
| --- | --- | --- | --- | --- | --- | --- | --- |
| Cc1cc(C)c(N2C(=O)CSC2=NC2CC2)cc1SCC(F)(F)F [Example 112] | 3.65 | 3.65 | 100% | – | – | – | – |
| Cc1cc(F)c(-n2c(=O)n(C3CC3)c(=O)n2CC(F)(F)F)cc1[S+]([O-])CC(F)(F)F (centres unmarked) [Example 164] | 2.58 | 2.54 | – | 90% | – | – | – |
| CCCn1c(=O)n(C2CC2)c(=O)n1-c1cc([S+]([O-])CC(F)(F)F)c(C)cc1F (centres unmarked) [Example 172] | 2.46 | 2.42 | – | 90% | – | – | – |
| Cc1cc(F)c(-n2c(=O)n(C(C)C)c(=O)n2C(C)(C)C)cc1SCC(F)(F)F [Example 143] | – | 4.56 | – | 100% | – | – | – |
| Cn1c(=O)n(C2CC2)c(=O)n1-c1cc([S+]([O-])CC(F)(F)F)c(Br)cc1F (centres unmarked) [Example 72] | 2.24 | 2.18 | – | 90% | – | – | – |
| Cc1cc(F)c(-n2c(=O)n(C)c(=O)n2C(C)C)cc1SCC(F)(F)F [Example 62] | 3.29 | 3.23 | – | 90% | – | – | – |
| Cc1ccc(-n2c(=O)n(C)c(=O)n2-c2ccc(C)c(SCC(F)(F)F)c2)cc1SCC(F)(F)F [Example 56] | 4.34 | 4.05 | – | 90% | – | – | – |
| Cc1cc(F)c(N2C(=O)CSC2=NCC(C)(C)C)cc1[S+]([O-])CC(F)(F)F (racemic) [Example 114] | 3.66 | 3.63 | – | 90% | – | – | – |
| Cc1cc(F)c(N2C(=O)C(C)(C)C(=O)N2c2ccccc2)cc1SCC(F)(F)F [Example 173] | 3.64 | 3.58 | – | 90% | – | – | – |
| Cc1cc(F)c(N2C(=O)C(=O)N(C(C)(C)C)C2=S)cc1SCC(F)(F)F [Example 193] | 4.50 | 4.42 | – | 100% and 90% | – | – | – |
| Cc1cc(F)c(-n2c(=O)n(-c3ccccc3)c(=O)n2C)cc1SCC(F)(F)F [Example 162] | 3.42 | 3.27 | 100% | – | – | – | – |
| CCCCN1CC(=O)N(c2cc(SCC(F)(F)F)c(C)cc2F)C1=O [Example 202] | 3.39 | 3.35 | – | 100% | – | – | – |
| C=CCn1c(=O)n(-c2cc(SCC(F)(F)F)c(C)cc2F)c(=O)n1C [Example 125] | 2.91 | – | – | 100% | – | – | – |
| Cc1cc(F)c(N2C(=O)N(C3CC3)C(=O)C2C)cc1SCC(F)(F)F (centres unmarked) [Example 214] | 3.12 | – | – | 100% | – | – | – |
| Cc1cc(F)c(N2C(=O)C(C)(C)C(=O)N2C)cc1SCC(F)(F)F [Example 174, 1-{2-Fluoro-4-methyl-5-[(2,2,2-trifluoroethyl)sulfanyl]phenyl}-2,4,4-trimethylpyrazolidine-3,5-dione] | – | – | – | – | 2.84 | 2.79 | 100% |
| Cc1cc(F)c(N2C(=O)N(C)C(=O)C2C)cc1[S+]([O-])CC(F)(F)F (centres unmarked) [Example 213] | 1.91 | – | – | 100% | – | – | – |
| Cc1cc(F)c(-n2c(=O)n(CC3CC3)c(=O)n2C)cc1SCC(F)(F)F [Example 161] | 3.39 | 3.34 | – | 100% | – | – | – |
| CCn1c(=O)n(C2CC2)c(=O)n1-c1cc([S+]([O-])CC(F)(F)F)c(C)cc1F (centres unmarked) [Example 171] | 2.18 | 2.15 | – | 100% | – | – | – |
| CCn1c(=O)n(C)c(=O)n1-c1ccc(C)c(SCC(F)(F)F)c1 [Example 51] | 2.82 | 2.83 | – | 90% | – | – | – |
| Cc1cc(F)c(-n2c(=O)n(C(C)(C)C)c(=O)n2CC(F)(F)F)cc1SCC(F)(F)F [Example 147] | 4.34 | 4.28 | – | 100% | – | – | – |
| Cc1cc(F)c(-n2[nH]c(=O)n(C3CC3)c2=O)cc1SCC(F)(F)F [Example 66] | 2.30 | 0.69 | – | 100% | – | – | – |
